≈ marks a conversion by molar mass, not a printed value. Read-outs that look alike come from different tables or passages of the source.
Legend:
[1] = tested on: L. mexicana intracellular amastigotes; experiment: Growth inhibition of intracellular amastigotes in J774A.1 macrophages (Renilla luciferase luminescence); format: cell-based; conditions: Leishmania mexicana, J774.A1; intracellular amastigotes in J774A.1 macrophages; mean ± standard deviation, n = 2; read-out: L. mexicana EC50
Method: (§1) L. mexicana (MNYZ/BZ/62/M379) or L. donovani (LdBob strain) parasites expressing the Renilla luciferase gene from a rRNA gene locus were used to infect J774A.1 macrophages. Growth of intracellular amastigotes was measured using a luminescence assay, as detailed previously. The growth inhibitor activities of compounds were tested against bloodstream form Lister 427 T. brucei in 96-well plates containing 1 X 10^5 parasites per well in 0.2 ml HMI-11 medium (Gibco/Thermo Fisher). Compounds (2 μl volumes in DMSO) were added to the parasites using serial 3-fold dilutions to cover a range of concentrations from about 10 μM to 1 nM. After 48 h incubation at 37°C under a humidified 5% CO2 atmosphere, 10 μl of 10% Triton X-100 and 100 X stock SYBR Green I (Sigma-Aldrich) in PBS was added and florescence measured (excitation 497 nm; emission 520 nm) after 1 h incubation in the dark using a Spectra Max Gemini XPS fluorimeter (Molecular Devices). Data were log transformed and EC50 values were determined using GraphPad Prism 6 (GraphPad Software). In the absence of growth inhibiting compounds, the parasites grew from an initial density of 5 X 10^5 cells/mL to ~3 X 10^6 cells/mL.
[…]. These were chosen as candidates for further study. From these 230 compounds, we were able to repurchase 113 from commercial vendors. These compounds were characterized for purity by ultra-performance liquid chromatography using ultraviolet spectroscopy and evaporative light scattering detection and identity by mass spectrometry. All validated compounds were profiled for activity against intracellular amastigotes, the disease-causing stage of the life cycle. Intracellular amastigote activity was determined using a strain of L. mexicana in which the Renilla luciferase gene was integrated into the rRNA locus, allowing robust expression for measuring amastigote growth within cultured macrophages. All 113 compounds were applied at 1 μM concentration for 96 h to J774A.1 macrophages infected with L. mexicana luciferase-expressing parasites. […].
Next, we generated dose-response curves for these 55 compounds against intracellular amastigotes and independently against J774A.1 macrophages to establish the relative potency of each compound against the pathogen and its host cell. […]. The nine remaining compounds, each representing a unique chemical scaffold (compounds 1–9, Fig 3), were designated top hits (Fig 1).

[2] = tested on: L. donovani intracellular amastigotes; experiment: as above; format: cell-based; conditions: Leishmania donovani, J774.A1; intracellular amastigotes in J774A.1 macrophages; mean ± standard deviation, n = 2; read-out: L. donovani EC50
Method: as §1

[3] = tested on: Trypanosoma cruzi CL Brener epimastigotes; experiment: Growth inhibition of Trypanosoma cruzi epimastigotes (SYBR Green); format: cell-based; conditions: Trypanosoma cruzi; 72 h, 10 μM to 1 nM; read-out: T. cruzi epimastigotes EC50
Method: Trypanosoma cruzi CL Brener epimastigotes were obtained from Dr. Fred Buckner of the Department of Medicine at the University of Washington. T. cruzi epimastigotes were grown in liver infusion tryptose medium and seeded in a 96-well plate at 10^5 epimastigotes per well in 100 μl medium. For each well, 1 μl of compound in DMSO at 100X the desired final concentration was added. Epimastigotes were exposed to a range of compound concentrations from 10 μM to 1 nM to determine EC50. Plates were incubated at 26°C for 72 h, then 10 μl 50X SYBR Green in 1% Triton X-100 was added to each well followed by incubation with shaking at room temperature for 30 minutes. Fluorescence was read (excitation 485nm, emission 535nm) with the Victor^2 multiplate reader (PerkinElmer). All data processing and visualization were performed using GraphPad Prism 6 software.

J774A.1 macrophages = experiment: Cytotoxicity to J774A.1 macrophages (dose-response); format: cell-based; conditions: Mus musculus, J774.A1; host macrophage; tested up to 10 μM; mean ± standard deviation, n = 2; read-out: J774A.1 EC50
Method: Cytotoxicity of compounds to J774.A1 macrophages was determined by dose-response curves as described previously. In the absence of growth inhibitors or DMSO, the macrophages increased in number ~6-fold over 96 h in Minimum Essential Medium, employed for both macrophage infections and the toxicity assays.

[4] = tested on: bloodstream form Lister 427 T. brucei; experiment: Growth inhibition of T. brucei bloodstream forms (SYBR Green I); format: cell-based; conditions: bloodstream form, mean ± standard deviation, n = 2, read-out: T. brucei EC50
Method: as §1

[5] = Parallel Artificial Membrane Permeability Assay (PAMPA); conditions: pH 7.4
Method: Parallel Artificial Membrane Permeability Assay (PAMPA) was conducted by Biomek FX lab automation workstation (Beckman Coulter, Inc.) and PAMPA evolution 96 command software (pION Inc.). A 3 µL aliquot of […] test compound stock in DMSO was mixed with 597 µL of isotonic citrate phosphate buffered saline to make diluted test compound. Diluted test compound (150 µL) was transferred to a UV plate (pION Inc.) and the UV spectrum was read as the reference plate. The membrane on a pre-loaded PAMPA sandwich (pION Inc.) was painted with 4 µL GIT lipid (pION Inc.). The acceptor chamber was then filled with 200 µL acceptor solution buffer, (pION Inc.), and the donor chamber was filled with 180 µL diluted test compound. The PAMPA sandwich was assembled, placed on the Gut-Box and stirred for 30 min. The Aqueous Boundary Layer was set to 40 µm for stirring. The UV spectrum (250-500 nm) of the donor and the acceptor solutions were recorded. The permeability coefficient was calculated using PAMPA Evolution 96 Command software (pION Inc.) based on the AUC of the reference plate, the donor plate and the acceptor plate. All compounds were tested in triplicate.

in vitro = conditions: pH 1
Method: Compound stocks were 10 mM in DMSO. The internal standard was 5 µM warfarin in methanol. […] 1 ml SGF was added to a 1.1 ml 96-well storage plate and mixed well with 10 µl compound stock. The plate was then incubated at 37 °C and shaken at 60 rpm. […] At each time point, 100 µl was removed to a 1 ml storage plate and 300 µl internal standard was added to quench the reaction. […] The compound was detected by SIR and quantification was based on peak area of test compound and the internal standard.

[6] = Liver microsomal stability, mouse; conditions: female, microsomes, pH 7.4
Method: (§2) One part of 10 mM DMSO compound stock was mixed with 4 parts of acetonitrile to make 2 mM diluted compound stock in DMSO and acetonitrile. 29.1 µL diluted compound stock was added to 2.3 mL liver microsomal solution and vortexed to make microsomal solution with compound. […] For the 0 h time point, 450 µL pre-cooled (4 °C) internal standard (10 µM warfarin in methanol) was added to the first three columns before the reaction was initiated. 1.25 ml of microsome assay solution A (Fisher Scientific, #NC9255727) was combined with 0.25 ml of solution B (Fisher Scientific, #NC9016235) in 3.5 ml of potassium phosphate buffer (0.1 M, pH 7.4). 45 µL of this A+B solution was added to each well of the 96-well storage plate (reaction plate). Liquid in the first 3 columns was moved to another storage plate (quenched plate). The reaction plate was then sealed, incubated at 37 °C, and shaken at a speed of 60 rpm. Time points (0.5 h, 1 h, 2 h) were taken. At each time point, 450 µL pre-cooled internal standard was added to 3 rows in the reaction plate, and the liquid was then transferred to the quenched plate. […] 200 µL supernatant was transferred to a 96-well plate and analyzed by ultra-performance liquid chromatography-mass spectrometry (UPLC-MS) (Waters Inc.). The compounds and internal standard were detected by selected ion recording (SIR).

[7] = Liver microsomal stability, rat; conditions: microsomes, pH 7.4
Method: as §2

[8] = Liver microsomal stability, human; conditions: both, microsomes, pH 7.4
Method: as §2

[9] = Solubility in aqueous buffer; format: physicochemical; conditions: pH 7.4, aqueous buffer, kinetic from dmso stock
Method: Solubility assays were carried out on a Biomek FX lab automation workstation (Beckman Coulter, Inc., Fullerton, CA) using μSOL Evolution software (pION Inc.). Compound stock (10 mM in DMSO, 10 μL) was added to 1-propanol (190 μL) to make a reference stock plate. Reference stock solution (5 μL) was mixed with 1-propanol (70 μL) and citrate phosphate buffered saline (pH 7, 75 μL) to make the reference plate which was then measured with UV detection. Test compound stock (10 mM, 6 μL) was added to citrate phosphate buffered saline (594 μL) in a 96-well storage plate and mixed. […] The suspension was then filtered through a 96-well filter plate (pION Inc.). Filtrate (75 μL) was mixed with 1-propanol (75 μL) to make the sample plate, and the UV spectrum (250 nm −500 nm) of the sample plate was recorded. Calculation of solubility was carried out using μSOL Evolution software based on the AUC of the UV spectrum of the sample plate and the reference plate. All compounds were tested in triplicate.

[10] = Caco-2 permeability assay; format: in vitro ADME; conditions: human, pH 7.4; for Papp A→B at 2 h, 10 μmol/L / Papp B→A at 2 h, 10 μmol/L: mean ± standard deviation of three runs; for Papp A→B at 2 h, 10 μmol/L: read-out: Caco-2 (A→B) permeability coefficient; for Papp B→A at 2 h, 10 μmol/L: read-out: Caco-2 (B→A) permeability coefficient
L. mexicana = experiment: Efficacy in murine model of cutaneous leishmaniasis (footpad lesion size); format: in vivo; conditions: BALB/c mice infected with L. mexicana; 20 mg/kg daily oral gavage for 10 days from week 4; measured weeks 4–12
Method: Female BALB/c mice (~20 g) were injected in one hind footpad with 1 x 10^6 stationary phase promastigotes suspended in 25 μl of phosphate buffered saline (PBS). Four weeks after infection, when a small cutaneous lesion was visible in the injected footpad, cohorts of five mice were treated with either compound or vehicle alone (90 μl), delivered daily for 10 consecutive days by oral gavage using a 20-gauge x 30 mm disposable plastic feeding needle. Vehicle consisted of 10/10/40/39 mixture of ethanol/(PG)/PEG400/PBS plus 1% (weight/volume) 2HβCD (PG is propylene glycol, PEG is polyethylene glycol, 2HβCD is 2-hydroxy-β-cyclodextran). The daily dose for each compound was: compound 4, 25 mg/kg; compound 5, 30 mg/kg; miltefosine, 20 mg/kg. The width of the footpad (top to bottom) was measured with calipers before injection of parasites (day 0) and weekly from weeks 4–12. The width of the uninfected contralateral footpad was also measured each week, and its width was subtracted from that of the infected footpad to determine lesion size.

SMILES | EC50 [1] [nM] | EC50 [2] [nM] | EC50 [3] [nM] | EC50 (J774A.1 macrophages) [µM] | half-life at 99 µM (in vitro; simulated gi fluid) [min] | half-life at 20 μM [6] [min] | half-life at 20 μM [7] [min] | half-life at 20 μM [8] [min] | solubility at 18 h [9] [µM] | Papp A→B at 2 h, 10 μmol/L ([10]; Caco-2) [×10⁻⁶ cm/s] | Papp B→A at 2 h, 10 μmol/L ([10]; Caco-2) [×10⁻⁶ cm/s] | further results
Cc1ccc(-c2cc3c(c(OCC4CCCN(C)C4)c2)OCCN(C(=O)Cc2c(C)noc2C)C3)s1 (stereo not shown) [Compound 8] | 23 ± 18 | 1.1 ± 0.8 | 330 | 2.2 ± 1.4 | – | – | – | – | – | – | – | EC50 ([4]; Trypanosoma brucei): 300 ± 80 nM; EC50 [4]: < 300 nM
Oc1c(C(Nc2ccccn2)c2cccc(Cl)c2Cl)ccc2cccnc12 (stereo not shown) [Compound 9] | 100 ± 10 | 15 ± 9 | 2100 ± 70 | 9 ± 6 | – | – | – | – | – | – | – | –
CCCSc1ccc2nc(NC(=O)OC)[nH]c2c1 [albendazole] | – | – | – | – | > 1440 | 42 | 97.2 | > 240 | 3.8 (≈ 1.01 µg/mL) | – | – | Papp at 30 min, 0.05 µM [5]: 204 ×10⁻⁶ cm/s
NC(=O)N1c2ccccc2C=Cc2ccccc21 [carbamazepine] | – | – | – | – | – | – | – | – | – | 71.8 ± 1.2 | 56.5 ± 3.2 | efflux ratio at 2 h, 10 μmol/L ([10]; Caco-2, pH 7.4, Papp B→A / Papp A→B): 0.79; Papp at 30 min, 0.05 µM ([5]; PAMPA): 95.6 ×10⁻⁶ cm/s; half-life at 99 µM (in vitro; simulated gastric fluid with pepsin): > 1440 min; half-life at 20 μM ([6]; mouse): > 240 min; half-life at 20 μM ([7]; rat): > 240 min; half-life at 20 μM ([8]; human): > 240 min; solubility at 18 h ([9]; citrate phosphate buffered saline): 82.2 µM (≈ 19.4 µg/mL)
C[C@H]1O[C@@H](O[C@H]2[C@@H](O)C[C@H](O[C@H]3[C@@H](O)C[C@H](O[C@H]4CC[C@@]5(C)[C@H](CC[C@@H]6[C@@H]5C[C@@H](O)[C@]5(C)[C@@H](C7=CC(=O)OC7)CC[C@]65O)C4)O[C@@H]3C)O[C@@H]2C)C[C@H](O)[C@@H]1O [digoxin] | – | – | – | – | > 1440 | > 240 | > 240 | > 240 | 80.3 (≈ 62.7 µg/mL) | 4.61 ± 0.46 | 27.1 ± 2.1 | efflux ratio at 2 h, 10 μmol/L ([10]; Caco-2, Papp B→A / Papp A→B): 5.87
CCCCCCCCCCCCCCCCOP(=O)([O-])OCC[N+](C)(C)C [miltefosine, reference compound] | – | – | – | – | – | – | – | – | – | – | – | Cutaneous lesion size (footpad width) (L. mexicana): reduced lesion size from the initial dimension

From article PMC5764437, “Discovery of novel, orally bioavailable, antileishmanial compounds using phenotypic screening” (PLoS Neglected Tropical Diseases, 2017)
